Test results reported in article PMC7875120 (Bioorganic & medicinal chemistry, 2020).
Counter-ions that a name gives are not always drawn.

What was measured:
[1] = tested on: cellular microtubules in A-10 cells; assay: Microtubule depolymerizing effects, cell-based phenotypic screen; conditions: for microtubule depolymerizing activity: at 10000 nM, A-10 cells
[2] = tested on: U251 cancer cells; assay: U251 cytotoxicity assay; format: cell-based, human; conditions: versus compound 5
[3] = tested on: HeLa cells; assay: Antiproliferative activity in parental HeLa cells; format: cell-based; conditions: Homo sapiens, read-out: IC50 ± SD HeLa
[4] = tested on: NCI 60 cancer cell lines; assay: NCI 60 cell line panel; format: cell-based; conditions: values in Table S2, not available
[5] = Maximal tolerated dose, dose escalation study; format: in vivo; conditions: nude mice, escalation until >5% weight loss
[6] = tested on: U251 human glioma cells implanted into nude mice; assay: U251 flank xenograft study; format: in vivo; conditions: 17.5 mg/kg twice week
[7] = tested on: MDA-MB-435 cancer cells; conditions: earlier report; cited from earlier work
[8] = tested on: SK-OV-3 cells; assay: Antiproliferative activity in parental SK-OV-3 cells; format: cell-based; conditions: Homo sapiens, SK-OV-3, read-out: IC50 ± SD SK-OV-3

## COc1ccc2c(N(C)c3ncnc4c3CCC4)cccc2c1 [Compound 8, N-(6’-methoxynaphthyl-1’)-N-methyl-cyclopenta[d]pyrimidin-4-amine]
[1]
  microtubule depolymerizing activity: no microtubule depolymerizing activity
[2]
  fold less potent/active than 5 in the U251 cytotoxicity assay: 7 fold

## COc1ccc(/C=C\c2cc(OC)c(OC)c(OC)c2)cc1O [CA-4, Combretastatin A-4]
[3]
  IC50: 4.7 ± 0.2 nM

## COc1cccc2cc(N(C)c3ncnc4c3CCC4)ccc12 [Compound 9, N-(5’-methoxynaphthyl-2’)-N-methyl-cyclopenta[d]pyrimidin-4-amine hydrochloric salt]
[2]
  fold less potent/active than 5 in the U251 cytotoxicity assay: 4 fold

## COc1cccc2cc(N(C)c3nc(C)nc4c3CCC4)ccc12 [Compound 5, N-(5’-methoxynaphthyl-2’)-N,2-dimethyl-cyclopenta[d]pyrimidin-4-amine hydrochloric acid salt]
[4]
  GI50s in the NCI 60 cell line panel: potent GI50s against most of the NCI 60 cancer cell lines
[1]; versus CA-4
  fold more potent than CA-4 in microtubule depolymerizing activity: about 3 fold
[5]
  Maximal tolerated dose (MTD): 17.5 mg/kg/2x wk
[6]; U251 xenograft mice
  toxicity as measured by animal weight: without significant toxicity
[6]; started 7 days after implantation
  tumor growth (tumor volume) in U251 xenograft: inhibited tumor growth as compared with the carrier or temozolomide

## Cn1nnc2c(C(N)=O)ncn2c1=O [temozolomide, reference compound]
[5]
  Maximal tolerated dose (MTD): 50 mg/kg/wk

## COc1cccc2c(N(C)c3nc(C)nc4c3CCC4)cccc12 [Compound 7, N-(5’-methoxynaphthyl-1’)-N,2-dimethyl-cyclopenta[d]pyrimidin-4-amine hydrochloric acid salt]
[2]
  fold less potent/active than 5 in the U251 cytotoxicity assay: 2 fold

## COc1ccc(N(C)c2nc(C)nc3c2CCC3)c2ccccc12 [Compound 6, N-(4’-methoxynaphthyl-1’)-N,2-dimethyl-cyclopenta[d]pyrimidin-4-amine]
[1]; versus compound 5
  fold less potent than 5 for microtubule depolymerizing activity: more than 100 fold
[2]
  fold less potent/active than 5 in the U251 cytotoxicity assay: 2 fold

## COc1ccc(Nc2nc(C)nc3c2CC(C)C3)cc1 (stereo not drawn) [Compound 2]
[7]
  antiproliferative and microtubule depolymerizing activity: almost inactive

## COc1ccc2c(N(C)c3nc(C)nc4c3CCC4)cccc2c1 [Compound 4, N-(6’-methoxynaphthyl-1’)-N,2-dimethyl-cyclopenta[d]pyrimidin-4-amine hydrochloric acid salt]
[1]
  microtubule depolymerizing activity: no microtubule depolymerizing activity
[2]
  fold less potent/active than 5 in the U251 cytotoxicity assay: 5 fold

## COc1ccc(N(C)c2nc(C)nc3c2CCC3)cc1 [Compound 3, 2,4-dimethyl-4-(4′-methoxy)phenyl cyclopenta[d]pyrimidine]
[3]
  IC50: 12 ± 1.2 nM
[8]
  IC50: 11.3 ± 0.2 nM
